Assays:
[1] = test system: DJ-1; experiment: MPTP mouse model of PD, Western blot of DJ-1 in the nigra; format: in vivo, mice; conditions: MPTP intoxication; FIG. 9A-B
Procedure: (§1) Six- to eight-week old C57BL/6 mice were purchased from Harlan (Indianapolis, Ind.). For acute MPTP intoxication, mice received four intraperitoneal (i.p.) injections of MPTP-HCl (18 mg/kg of free base; Sigma Chemical Co., St. Louis, Mo.) in saline at 2-h intervals. Control animals received only saline.
(§2) GTB was mixed in 0.5% methylcellulose (MC) and from 3 h after the last injection of MPTP, mice were gavaged 100 μL GTB-mixed MC once daily using gavage needle. Therefore, control MPTP mice received only MC as vehicle.
(§3) Immunoblot analysis for DJ-1 and TH was carried out. Briefly, cell homogenates were electrophoresed, proteins were transferred onto a nitrocellulose membrane, and bands were visualized with an Odyssey infrared scanner after immunolabeling with respective primary antibodies followed by infra-red fluorophore-tagged secondary antibody (Invitrogen).
Upregulation and/or maintenance of PD-related beneficial protein such as DJ-1 in the nigra during neurodegenerative insults may have therapeutic efficacy in PD.

[2] = test system: Tyrosine hydroxylase (TH); experiment: MPTP mouse model of PD, Western blot of nigral TH; format: in vivo, mice; conditions: MPTP intoxication compared with saline-injected controls; FIG. 9A-B
Procedure: as §1, §2, §3
Tyrosine hydroxylase (TH), the key enzyme responsible for the production of dopamine, is present in dopaminergic neurons. MPTP-intoxication led to approximately 60% loss of nigral TH (FIG. 9A-B) compared with saline-injected controls.

[3] = test system: dopamine (DA) in the striata; experiment: MPTP mouse model of PD, HPLC of striatal dopamine; format: in vivo, mice; conditions: MPTP intoxication compared to saline-injected control mice, 7 days; FIG. 10
Procedure: as §1, §2
Striatal level of dopamine was quantified in Complete Stand-Alone HPLC-ECD System EiCOMHTEC-500 (JM Science Inc., Grand Island, N.Y.). Briefly, mice were sacrificed by cervical dislocation after 7 days of MPTP intoxication and their striata were collected and immediately frozen in dry ice and stored at −80° C. until analysis. On the day of the analysis, tissues were sonicated in 0.2M perchloric acid containing isoproterenol and resulting homogenates were centrifuged at 20,000×g for 15 min at 4 C. After pH adjustment and filtration, 10 μl of supernatant was injected onto an Eicompak SC-3ODS column (Complete Stand-Alone HPLC-ECD System EiCOMHTEC-500 from JM Science Inc., Grand Island, N.Y.) and analyzed following the manufacturer's protocol.
Next, to determine whether GTB protects against biochemical deficits caused by MPTP, the inventor quantified levels of dopamine (DA) in the striata 7 days after the MPTP treatment. As evident from FIG. 10, MPTP intoxication led to about 75% decrease in striatal DA compared to striata of saline-injected control mice.

[4] = test system: disease process of multiple sclerosis (MS) in mice; conditions: cited from earlier work
[5] = test system: DJ-1; conditions: astrocytes and neurons (cited title); cited from earlier work
[6] = test system: BDNF; conditions: brain cells; cited from earlier work
[7] = test system: NT-3; conditions: brain cells; cited from earlier work
[8] = in vivo; cited from earlier work

Structure (SMILES) | level of DJ-1 in the nigra [1] | loss of nigral TH [2] | decrease in striatal DA [3] | disease process of multiple sclerosis (MS) [4] | DJ-1 protein [5] | production of BDNF [6] | production of NT-3 [7] | metabolism and excretion [8]
CN1CC=C(c2ccccc2)CC1 [MPTP, reference compound] | decreased the level of DJ-1 | approximately 60% | about 75% |  |  |  |  | 
O=C([O-])c1ccccc1.[Na+] [sodium benzoate] |  |  |  | suppresses the disease process | up-regulates | increases the production | increases the production | quickly metabolized and excreted from the body

Source: patent US9968582B2, “Use of a benzoate containing composition in urea cycle disorders and neurodegenerative disorders” (Rush University Medical Center, priority 2014, dated 2018)
